Values of other authors as cited in patent US20240189272A1, “FORMULATIONS AND COMPOSITIONS OF DOCETAXEL” (Zhuhai Beihai Biotech Co., Ltd., priority 2017, published 2024).
“Also recorded” adds a separate entry of the source.

Experiments:
[1] = attributed in part to polysorbate 80

## CC(=O)O[C@@]12CO[C@@H]1C[C@H](O)[C@@]1(C)C(=O)[C@H](O)C3=C(C)[C@@H](OC(=O)[C@H](O)[C@@H](NC(=O)OC(C)(C)C)c4ccccc4)C[C@@](O)([C@@H](OC(=O)c4ccccc4)[C@H]21)C3(C)C [docetaxel]
microtubules
  potency in inhibiting microtubule depolymerization relative to paclitaxel: about twice as potent as paclitaxel
other
  water solubility: practically insoluble in water; also recorded: very poor water solubility
[1]
  side-effects associated with administration: unpredictable (acute) hypersensitivity reactions and cumulative fluid retention
Plasma proteins; in three cancer patients
  in vitro binding to plasma proteins: approximately 97%
Plasma proteins; in vitro studies, mainly to α1-acid glycoprotein, albumin, and lipoproteins
  protein bound: about 94%
